# According to patent US11634479B2, “Immunoassay for collagen type VI” (Nordic Bioscience A/S, priority 2015, dated 2023):
# B1: 10A3: mouse IgG1/kappa monoclonal antibody against the last 10 amino acids of C-terminal COL6A3 (…); heavy chain SEQ ID NO:5, light chain SEQ ID NO:9 (antibody)
# heavy: EVQLQQSGPVMVKPGTSVKTSCKASGYTFTDFNMNWVKQSHGKSLEWIGAINPHNGATSYNQKFSGKATLTVDKSSSTAYMELNSLTSDDSAVYYCARWGNGKNSWGQGTTLTVSSAKTTPPSVYPLAPGSAAQTNSMVTLGCLVKGYFPEPVTVTWNSGSLSSGVHTFPAVLQSDLYTLSSSVTVPSSTWPSETVTCNVAHPASSTKVDKKIVPRDCGCKPCICTVPEVSSVFIFPPKPKDVLTITLTPKVTCVVVDISKDDPEVQFSWFVDDVEVHTAQTQPREEQFNSTFRSVSELPIMHQDWLNGKEFKCRVNSAAFPAPIEKTISKTKGRPKAPQVYTIPPPKEQMAKDKVSLTCMITDFFPEDITVEWQWNGQPAENYKNTQPIMDTDGSYFVYSKLNVQKSNWEAGNTFTCSVLHEGLHNHHTEKSLSHSPGK
# light: DVVMTQTPLSLPVNLGDQASISCRSSQRIVHSNGITFLEWYLQKPGQSPKLLIYRVSNRFSGVPDRFSGSGSGTDFTLKISRVEAEDLGLYYCFQGSHVPLTFGAGTRLELKRADAAPTVSIFPPSSEQLTSGGASVVCFLNNFYPKDINVKWKIDGSERQNGVLNSWTDQDSKDSTYSMSSTLTLTKDEYERHNSYTCEATHKTSTSPIVKSFNRNEC
# modifications: Heavy chain sequence of mouse IgG1 isotype of monoclonal antibody 10A3; Light chain sequence of mouse Kappa isotype of monoclonal antibody 10A3
# Key:
# [1] = BALLETS phase III clinical study: adverse event profile in subgroups of baseline endotrophin; type: in vivo, subjects with type 2 diabetes on stable insulin therapy
# Source text: Testing Strategies) study was a phase III, randomized, double-blind, parallel-group, placebo and active comparator-controlled clinical study to determine the efficacy and safety of six months' treatment of balaglitazone or pioglitazone in subjects with type 2 diabetes on stable insulin therapy. The baseline demographics, CONSORT diagram as well as efficacy and safety data have previously been published (Henriksen, 2011). In the current study we used the per protocol population of the BALLETS study, which consisted of 299 subjects spread evenly over four groups (placebo, two doses of balaglitazone, and one dose of piogliatazone) as previously described (Henriksen, 2011), all with baseline and up to six follow-up parameters related to blood sugar control and Pro-C6 determinations under therapy.
# The analysis included subjects from the per protocol population having a baseline measurement of serum Pro-C6. Subjects were grouped into one of three tertiles based on their baseline Pro-C6 value. Tertile 1 included subjects with baseline serum Pro-C6 of 6.2 ng/mL or below; tertile 2 had baseline serum Pro-C6 of 6.3 ng/mL to 7.7 ng/mL, and tertile 3 had baseline serum Pro-C6 of 7.8 ng/mL or above. Baseline characteristics between the three subgroups were compared by analysis of variance (ANOVA), and comparison of the proportion of genders in each tertile was compared by Fisher's exact test.
# Lower leg edema, when measured as volume increase due to water displacement, was correlated with baseline serum endotrophin tertiles. Glitazone therapy led to increased lower leg volume in the lower and middle tertile, while there were no differences between treatment and placebo groups in the upper tertile (FIG. 12A-12C). There were no significant differences in the occurrence of AEs or SAEs in the three different treatment groups when stratified according to endotrophin levels. The difference between the SAEs in Table 10 and the lower leg oedema reported in FIGS. 12A-12C is a function of the lower leg volume being a quantitative measure and the reporting of oedemas being a patient reported output (FIGS. 10A-10C).
# [2] = tested on: around 10 kD bands in human serum and amniotic fluid; assay: Western blot of human serum and amniotic fluid; type: binding; conditions: FIG. 2B
# around 10 kD bands in human serum and amniotic fluid, sequence (P12111 3112-3177 limits assumed): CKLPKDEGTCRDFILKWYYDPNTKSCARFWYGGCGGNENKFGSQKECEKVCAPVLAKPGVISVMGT
# Experimental: Native reactivity of the chosen antibody was assessed using human serum pool and human amniotic fluid pool.
# [3] = Tertile 1 baseline endotrophin, Balaglitazone 10 mg, n = 27
# [4] = Tertile 1 baseline endotrophin, Balaglitazone 20 mg, n = 22
# [5] = Tertile 2 baseline endotrophin, Balaglitazone 10 mg, n = 21
# [6] = Tertile 2 baseline endotrophin, Balaglitazone 20 mg, n = 21
# [7] = Tertile 3 baseline endotrophin, Balaglitazone 10 mg, n = 25
# [8] = Tertile 3 baseline endotrophin, Balaglitazone 20 mg, n = 25
# [9] = Tertile 1 baseline endotrophin, Pioglitazone 45 mg, n = 24
# [10] = Tertile 2 baseline endotrophin, Pioglitazone 45 mg, n = 29
# [11] = Tertile 3 baseline endotrophin, Pioglitazone 45 mg, n = 31
molecule,measurement,setting,value
"Cn1c(COc2ccc(CC3SC(=O)NC3=O)cc2)nc2ccccc2c1=O (stereo not drawn) [Balaglitazone, balaglitazone]","All AEs, E",[1]; [3],38
same,"All AEs, N (%)",[1]; [3],20 (74%) N (%)
same,"Serious AEs, E",[1]; [3],1
same,"Serious AEs, N (%)",[1]; [3],1 (4%) N (%)
same,"Severe AEs: Cardiac ischaemia, E",[1]; [3],0
same,"Severe AEs: Cardiac ischaemia, N (%)",[1]; [3],0 (0%) N (%)
same,"Severe AEs: Heart failure, E",[1]; [3],0
same,"Severe AEs: Heart failure, N (%)",[1]; [3],0 (0%) N (%)
same,"Severe AEs: Peripheral oedema, E",[1]; [3],2
same,"Severe AEs: Peripheral oedema, N (%)",[1]; [3],2 (7%) N (%)
same,"Total severe AEs, E",[1]; [3],2
same,"Total severe AEs, N (%)",[1]; [3],2 (7%) N (%)
same,"All AEs, E",[1]; [4],33
same,"All AEs, N (%)",[1]; [4],17 (77%) N (%)
same,"Serious AEs, E",[1]; [4],1
same,"Serious AEs, N (%)",[1]; [4],1 (5%) N (%)
same,"Severe AEs: Cardiac ischaemia, E",[1]; [4],2
same,"Severe AEs: Cardiac ischaemia, N (%)",[1]; [4],2 (9%) N (%)
same,"Severe AEs: Heart failure, E",[1]; [4],0
same,"Severe AEs: Heart failure, N (%)",[1]; [4],0 (0%) N (%)
same,"Severe AEs: Peripheral oedema, E",[1]; [4],2
same,"Severe AEs: Peripheral oedema, N (%)",[1]; [4],2 (9%) N (%)
same,"Total severe AEs, E",[1]; [4],4
same,"Total severe AEs, N (%)",[1]; [4],4 (18%) N (%)
same,"All AEs, E",[1]; [5],35
same,"All AEs, N (%)",[1]; [5],17 (81%) N (%)
same,"Serious AEs, E",[1]; [5],1
same,"Serious AEs, N (%)",[1]; [5],1 (5%) N (%)
same,"Severe AEs: Cardiac ischaemia, E",[1]; [5],1
same,"Severe AEs: Cardiac ischaemia, N (%)",[1]; [5],1 (5%) N (%)
same,"Severe AEs: Heart failure, E",[1]; [5],0
same,"Severe AEs: Heart failure, N (%)",[1]; [5],0 (0%) N (%)
same,"Severe AEs: Peripheral oedema, E",[1]; [5],3
same,"Severe AEs: Peripheral oedema, N (%)",[1]; [5],3 (14%) N (%)
same,"Total severe AEs, E",[1]; [5],4
same,"Total severe AEs, N (%)",[1]; [5],4 (19%) N (%)
same,"All AEs, E",[1]; [6],36
same,"All AEs, N (%)",[1]; [6],15 (71%) N (%)
same,"Serious AEs, E",[1]; [6],0
same,"Serious AEs, N (%)",[1]; [6],0 (0%) N (%)
same,"Severe AEs: Cardiac ischaemia, E",[1]; [6],0
same,"Severe AEs: Cardiac ischaemia, N (%)",[1]; [6],0 (0%) N (%)
same,"Severe AEs: Heart failure, E",[1]; [6],0
same,"Severe AEs: Heart failure, N (%)",[1]; [6],0 (0%) N (%)
same,"Severe AEs: Peripheral oedema, E",[1]; [6],2
same,"Severe AEs: Peripheral oedema, N (%)",[1]; [6],2 (10%) N (%)
same,"Total severe AEs, E",[1]; [6],2
same,"Total severe AEs, N (%)",[1]; [6],2 (10%) N (%)
same,"All AEs, E",[1]; [7],55
same,"All AEs, N (%)",[1]; [7],20 (60%) N (%)
same,"Serious AEs, E",[1]; [7],1
same,"Serious AEs, N (%)",[1]; [7],1 (4%) N (%)
same,"Severe AEs: Cardiac ischaemia, E",[1]; [7],0
same,"Severe AEs: Cardiac ischaemia, N (%)",[1]; [7],0 (0%) N (%)
same,"Severe AEs: Heart failure, E",[1]; [7],0
same,"Severe AEs: Heart failure, N (%)",[1]; [7],0 (0%) N (%)
same,"Severe AEs: Peripheral oedema, E",[1]; [7],1
same,"Severe AEs: Peripheral oedema, N (%)",[1]; [7],1 (8%) N (%)
same,"Total severe AEs, E",[1]; [7],1
same,"Total severe AEs, N (%)",[1]; [7],1 (8%) N (%)
same,"All AEs, E",[1]; [8],43
same,"All AEs, N (%)",[1]; [8],20 (60%) N (%)
same,"Serious AEs, E",[1]; [8],6
same,"Serious AEs, N (%)",[1]; [8],6 (24%) N (%)
same,"Severe AEs: Cardiac ischaemia, E",[1]; [8],1
same,"Severe AEs: Cardiac ischaemia, N (%)",[1]; [8],1 (4%) N (%)
same,"Severe AEs: Heart failure, E",[1]; [8],0
same,"Severe AEs: Heart failure, N (%)",[1]; [8],0 (0%) N (%)
same,"Severe AEs: Peripheral oedema, E",[1]; [8],1
same,"Severe AEs: Peripheral oedema, N (%)",[1]; [8],1 (4%) N (%)
same,"Total severe AEs, E",[1]; [8],2
same,"Total severe AEs, N (%)",[1]; [8],2 (8%) N (%)
"CCc1ccc(CCOc2ccc(CC3SC(=O)NC3=O)cc2)nc1 (stereo not drawn) [Pioglitazone, pioglitazone]","All AEs, E",[1]; [9],45
same,"All AEs, N (%)",[1]; [9],19 (79%) N (%)
same,"Serious AEs, E",[1]; [9],1
same,"Serious AEs, N (%)",[1]; [9],1 (4%) N (%)
same,"Severe AEs: Cardiac ischaemia, E",[1]; [9],0
same,"Severe AEs: Cardiac ischaemia, N (%)",[1]; [9],0 (0%) N (%)
same,"Severe AEs: Heart failure, E",[1]; [9],0
same,"Severe AEs: Heart failure, N (%)",[1]; [9],0 (0%) N (%)
same,"Severe AEs: Peripheral oedema, E",[1]; [9],5
same,"Severe AEs: Peripheral oedema, N (%)",[1]; [9],5 (21%) N (%)
same,"Total severe AEs, E",[1]; [9],5
same,"Total severe AEs, N (%)",[1]; [9],5 (21%) N (%)
same,"All AEs, N (%)",[1]; [10],17 (59%)^ N (%)
same,"Serious AEs, E",[1]; [10],3
same,"Serious AEs, N (%)",[1]; [10],2 (6%) N (%)
same,"Severe AEs: Cardiac ischaemia, E",[1]; [10],1
same,"Severe AEs: Cardiac ischaemia, N (%)",[1]; [10],1 (3%) N (%)
same,"Severe AEs: Heart failure, E",[1]; [10],0
same,"Severe AEs: Heart failure, N (%)",[1]; [10],0 (0%) N (%)
same,"Severe AEs: Peripheral oedema, E",[1]; [10],5
same,"Severe AEs: Peripheral oedema, N (%)",[1]; [10],5 (17%) N (%)
same,"Total severe AEs, E",[1]; [10],6
same,"Total severe AEs, N (%)",[1]; [10],5 (17%) N (%)
same,"All AEs, N (%)",[1]; [11],25 (81%)^ N (%)
same,"Serious AEs, E",[1]; [11],6
same,"Serious AEs, N (%)",[1]; [11],4 (13%) N (%)
same,"Severe AEs: Cardiac ischaemia, E",[1]; [11],4
same,"Severe AEs: Cardiac ischaemia, N (%)",[1]; [11],3 (10%) N (%)
same,"Severe AEs: Heart failure, E",[1]; [11],1
same,"Severe AEs: Heart failure, N (%)",[1]; [11],1 (3%) N (%)
same,"Severe AEs: Peripheral oedema, E",[1]; [11],2
same,"Severe AEs: Peripheral oedema, N (%)",[1]; [11],2 (6%) N (%)
same,"Total severe AEs, E",[1]; [11],7
same,"Total severe AEs, N (%)",[1]; [11],6 (19%) N (%)
B1,western blot signal in the presence of the standard peptide,[2],completely blocked
same,bands recognized in western blot,[2]; human serum and amniotic fluid,around 10 kD
